In BindingDB's records for PubMed 1464308 (Cnrs, 1992):

target: 5-hydroxytryptamine receptor 5A (Mus musculus, UniProt P30966)
Sequence (P30966 whole entry): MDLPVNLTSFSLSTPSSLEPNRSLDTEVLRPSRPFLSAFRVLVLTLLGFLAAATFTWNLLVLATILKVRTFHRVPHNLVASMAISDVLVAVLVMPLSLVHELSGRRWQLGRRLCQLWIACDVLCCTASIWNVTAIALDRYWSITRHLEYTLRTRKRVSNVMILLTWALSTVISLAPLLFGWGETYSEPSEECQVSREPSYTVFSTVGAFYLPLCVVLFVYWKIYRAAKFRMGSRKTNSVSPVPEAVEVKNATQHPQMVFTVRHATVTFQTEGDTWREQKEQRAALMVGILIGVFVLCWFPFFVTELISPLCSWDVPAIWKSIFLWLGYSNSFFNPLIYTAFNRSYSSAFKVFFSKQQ

Compared with `CCCN(CCC)C1CCc2cccc(O)c2C1` (centres undefined), `CCN(CC)C(=O)[C@@H]1C=C2c3cccc4[nH]c(Br)c(c34)C[C@H]2N(C)C1` [LSD,2-Bromo] is 630-fold lower in Ki: 1260 nM for the first, 1.99 nM for the second.

Compared with `CC[C@@H](CO)NC(=O)[C@@H]1C=C2c3cccc4c3c(cn4C)C[C@H]2N(C)C1`, `CN1C[C@H](C(=O)N[C@]2(C)O[C@@]3(O)[C@@H]4CCCN4C(=O)[C@H](Cc4ccccc4)N3C2=O)C=C2c3cccc4[nH]cc(c34)C[C@H]21` [12'-hydroxy-2'-methyl-5'alpha-(phenylmethyl)ergotaman-3',6',18-trione] is 16-fold lower in Ki: 63.1 nM for the first, 3.98 nM for the second.

`NCCc1ccc(O)c(O)c1` and `NCC(O)c1ccc(O)c(O)c1` (stereo not drawn) [Noradrenaline,(+)] cannot be ordered by Ki: greater than 10000 nM for the first, greater than 10000 nM for the second.

Compared with `O=C(c1ccc(F)cc1)C1CCN(CCn2c(=O)[nH]c3ccccc3c2=O)CC1` [3-(2-{4-[(4-fluorophenyl)carbonyl]piperidin-1-yl}ethyl)-1,2,3,4-tetrahydroquinazoline-2,4-dione], `O=C(CCCN1CCC2(CC1)C(=O)NCN2c1ccccc1)c1ccc(F)cc1` [8-[4-(4-fluorophenyl)-4-oxidanylidene-butyl]-1-phenyl-1,3,8-triazaspiro[4.5]decan-4-one] is lower in Ki: greater than 10000 nM for the first, 2510 nM for the second. The second binds more tightly here.

Compared with `CN(C)CCc1c[nH]c2ccc(O)cc12` [3-[2-(dimethylamino)ethyl]indol-5-ol], `CNS(=O)(=O)Cc1ccc2[nH]cc(CCN(C)C)c2c1` [Sumax] is higher in Ki: 1000 nM for the first, greater than 10000 nM for the second.

First: COc1ccc2[nH]cc(C3=CCNCC3)c2c1 [5-Methoxy-3-(1,2,3,6-tetrahydro-pyridin-4-yl)-1H-indole(RU-24969)]
Second: FC(F)(F)c1cccc(N2CCNCC2)c1 [TFMPP]
The Ki of the first is 7.9-fold lower: 316 nM for the first, 2510 nM for the second.

Compared with `CC(C)NCC(O)COc1cccc2[nH]ccc12` (centres undefined) [LB-46], `CSc1ccc2c(c1)C(N1CCN(C)CC1)Cc1ccccc1S2` (centres undefined) [methanesulfonic acid;1-methyl-4-(3-methylsulfanyl-5,6-dihydrobenzo[b][1]benzothiepin-5-yl)piperazine] is lower in Ki: greater than 10000 nM for the first, 100 nM for the second. The second binds more tightly here.
